Laboratory results taken from paper PMC12010006, “Subnanomolar MAS-related G protein-coupled receptor-X2/B2 antagonists with efficacy in human mast cells and disease models” (Signal Transduction and Targeted Therapy, 2025).

Key:
Type in all cases: cell-based
[1] = target: T1, MRGPRX2 (Homo sapiens, UniProt Q96LB1); assay: β-arrestin assay (agonist mode), β-arrestin CHO cells recombinantly expressing MRGPRX2; conditions: for EC50: agonist test, read-out: β-Arrestin assay EC50 ± SEM; for β-Arrestin assay % activation: normalized to CST-14 (EC80 5,000 nM)
T1 sequence (Q96LB1 1-330): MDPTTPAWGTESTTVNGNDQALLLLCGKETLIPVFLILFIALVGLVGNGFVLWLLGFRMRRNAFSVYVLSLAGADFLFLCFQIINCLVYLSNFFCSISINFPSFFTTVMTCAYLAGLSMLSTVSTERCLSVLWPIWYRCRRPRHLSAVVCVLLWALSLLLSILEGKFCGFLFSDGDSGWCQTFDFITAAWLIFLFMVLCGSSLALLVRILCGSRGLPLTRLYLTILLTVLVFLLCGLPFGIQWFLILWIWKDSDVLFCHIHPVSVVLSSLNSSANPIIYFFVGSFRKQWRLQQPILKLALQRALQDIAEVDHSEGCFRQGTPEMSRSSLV
Source text: Eurofins DiscoverX (Fremont, CA, USA) provided engineered Chinese hamster ovary (CHO) cells stably expressing β-arrestin-2 fused to a large β-galactosidase fragment (enzyme acceptor, EA). These CHO-K1-β-arrestin-2 cells were commercially available (93-0164). CHO-K1-β-arrestin-2 cells that additionally expressed MRGPRX1, -2, or -4 fused to the fragment ProLink™ (PK) were also purchased from the same company (93-0919C2, 93-0309C2, and 3-0541C2A, respectively). CHO cells expressing MRGPRX3 were generated as previously […].[31] The cells were grown in F-12 Ham Nutrient Mixture (Life Technologies) supplemented with 10% FBS, 100 U/mL of penicillin, 100 µg/mL of streptomycin (PAN-Biotech), 300 μg/mL of hygromycin B (PAN-Biotech), and 800 μg/mL of gentamicin (PAN-Biotech) at 37 °C and 5% CO2.).
The assays were carried out as previously described.[22] […] After 30 min of incubation at 37 °C and 5% CO2, Cortistatin-14 (CST-14, Bioscience, Bristol, United Kingdom) or another MRGPRX2 agonist that served as a standard agonist was added, and the mixture was incubated for 90 min at 37 °C and 5% CO2. Next, a detection reagent (50 µL, DiscoverX) was added, and the mixture was incubated at room temperature in the dark for 60 min. Chemiluminescence was measured on a Mithras LB 940 plate reader (Berthold Technologies, Bad Wildbad, Germany). The results represent means ± SEM of three to five independent experiments, each in duplicates.
^d β-Arrestin CHO cells recombinantly expressing MRGPRX2
^f Percentage of activation of normalized to CST-14 (EC80 5,000 nM)

[2] = target: T1, MRGPRX2; assay: β-arrestin recruitment assay (antagonist mode), β-arrestin-CHO cells recombinantly expressing MRGPRX2; set-up: expressed in transfected cells; conditions: for Ki: versus CST-14 (EC80 1,000 nM, EC50 483 nM), Cheng-Prusoff, read-out: β-Arrestin assay Ki ± SEM
[3] = target: T1, MRGPRX2; assay: Ca2+ mobilization assay, LN229 cells overexpressing MRGPRX2; set-up: expressed in transfected cells; host or cells: LN229 human glioblastoma cells; plasmid pLXSN-MRGPRX2 (Addgene #213960); conditions: for Ki: versus CST-14 (EC80 800 nM, EC50 452 nM), Cheng-Prusoff, read-out: Ca2+ assay Ki ± SEM; for MRGPRX2 antagonistic potency in Ca2+ assay, in words: versus CST-14
Description: Glioblastoma LN229-MRGPRX2 stably expressing MRGPRX2 (produced by retroviral transfection) were seeded into black sterile 96-well microplates at a density of 5 × 10^4 cells/well in 200 µL of DMEM/F12-Nut Mix medium, supplemented with 10% FCS, 100 U/mL of penicillin 100 µg/mL of streptomycin, and 200 µg/mL of G418 and incubated for 18–22 h.
The next day Fluo-4 AM Solution (1 mM) (Thermo Fisher Scientific) was prepared and used to prepare cell loading dye solution consisting of 4970 µL of Hank’s Buffered Saline Solution (HBSS) buffer, 15 µL of 20% Pluronic-F and 15 µL of 1 mM Fluo-4 AM. Next, the cell medium was removed and exchanged for 40 µL of dye solution per well (final concentration of Fluo-4 AM: 3 µM). The cell plate was incubated for 60 min in the dark at room temperature, then the dye solution was removed and replaced by 189 µL HBSS. Subsequently, 1 µL of antagonist diluted in DMSO was added and incubated for 30 min at room temperature and in the dark (final DMSO concentration 0.5%, v/v). CST-14 or another agonist prepared in HBSS as well as carbachol (final concentration 100 µM) were pipetted (10 µL) using a FlexStation® 3 Multi-Mode Microplate Reader. For the determination of baseline fluorescence, HBSS buffer containing solvent of the investigated compound was used. Fluorescence was measured for 120 intervals of 1 s (number of flashes: 10) at a wavelength of 525 nm (excitation 485 nm) using the SoftMax® Pro5.1 Microplate Data Acquisition & Analysis Software. Three independent experiments were performed in duplicates. Measurements are provided in relative fluorescence units and normalized to the maximal effect of CST-14.

SMILES | EC50 [1] | β-Arrestin assay % activation [1] | Ki [2] | Ki [3] | MRGPRX2 antagonistic potency in Ca2+ assay, in words [3] | other results
CN(C)CCCN1c2ccccc2CCc2ccc(Cl)cc21 [clomipramine, reference compound] |  |  |  |  |  | EC80 of agonist, β-arrestin assay [2]: 13000 nM
CCc1c(C)n(C)c2nc3ccccc3n2c1=O [Compound 20] | > 10000 nM | 1% |  |  | not tolerated | 
CN(C)[C@@H]1CCN(c2cc(-c3ccccc3)nc3ccnn23)C1 [(R)-ZINC-3573, reference compound] |  |  |  |  |  | EC80 of agonist, β-arrestin assay [2]: 2000 nM; EC50 ([2]; without antagonist, read-out: EC50 of (R)-ZINC-3573, shift assay): 2020 ± 333 nM
CCc1c(C(C)C)[nH]c2nc3c(C)cccc3n2c1=O [Compound 31] | > 10000 nM | 1% |  |  | abolished antagonistic activity | 
Cc1cc(=O)n2c(n1)oc1ccccc12 [Compound 22] | > 10000 nM | 0% |  |  | inactive | 
O=c1cc[nH]c2nc3ccccc3n12 [Compound 5, benzo[4,5]imidazo[1,2-α]pyrimidin-4(1H)-one] | > 10000 nM | -1% |  |  |  | 
CSc1cc(C(C)C)nc2nc3ccccc3n12 [Compound 19] | > 10000 nM | -1% |  |  | completely inactive | 
Cc1cc(=O)n2c(nc3ccccc32)[nH]1 [Compound 4] | > 10000 nM | 0% |  |  |  | 
Cc1cc(=S)n2c(nc3ccccc32)[nH]1 [Compound 17] | > 10000 nM | -3% |  |  |  | 
CC(C)c1cc(=O)n2c3ccccc3n(C)c2n1 [Compound 21] | > 10000 nM | -1% |  |  | not tolerated | 

More lines, main results first:

EC50 [1] | β-Arrestin assay % activation [1] | Ki [2] | Ki [3] | MRGPRX2 antagonistic potency in Ca2+ assay, in words [3] | SMILES | other results
> 10000 nM | 1% | 3780 nM | 1040 nM |  | Cc1[nH]c2nc3ccccc3n2c(=O)c1C [Compound 3] | fold decrease in potency ([3]; 3-methyl compared to 3-ethyl (2)): 4 fold
> 10000 nM | -1% | 48.2 ± 1.08 nM | 1.42 nM |  | CC(C)c1cc(=S)n2c(nc3ccccc32)[nH]1 [Compound 18] | fold increase in potency compared to 7 [3]: ~3000 fold
> 10000 nM | -1% | 69.7 ± 20.8 nM | 16.6 ± 10.9 nM |  | CCCc1[nH]c2nc3ccccc3n2c(=O)c1CCC [Compound 9] | 
> 10000 nM | 0% | 1050 nM | 4260 nM |  | CC(C)c1cc(=O)n2c(nc3ccccc32)[nH]1 [Compound 7] | 
> 10000 nM | 1% | 4790 nM | 4730 nM |  | CCCc1cc(=O)n2c(nc3ccccc32)[nH]1 [Compound 6, 2-Propylbenzo[4,5]imidazo[1,2-a]pyrimidin-4(1H)-one] | 
> 10000 nM | -2% | 29.6 ± 19 nM | 0.161 nM | subnanomolar potencies | CCc1c(C(C)C)[nH]c2nc3cc(C)ccc3n2c1=O [Compound 29] | fold improved potency compared to 27 [3]: 40 fold
> 10000 nM | -1% | 289 ± 119 nM | 13.3 nM |  | CCc1c(C(C)C)[nH]c2nc3cc(Br)c(Br)cc3n2c1=O [Compound 26] | 
> 10000 nM | -1% | 94.4 ± 63.8 nM | 0.895 nM | subnanomolar potencies | CCc1c(C(C)C)[nH]c2nc3ccccc3n2c1=O [Compound 10] | fold increase in potency compared to hit compound 1 [3]: 275 fold
> 10000 nM | -2% |  |  |  | CCc1c(-c2cccs2)[nH]c2nc3ccccc3n2c1=O [Compound 16] | 
> 10000 nM | 1% | 155 ± 56.6 nM | 2.98 nM |  | CCc1c(C(C)C)[nH]c2nc3cc(Cl)c(Cl)cc3n2c1=O [Compound 25] | 
> 10000 nM | -1% |  |  | inactive | Cc1cc(=O)n2c(n1)sc1ccccc12 [Compound 23] | 
